Target: T1, human recombinant Yes [a.a. 2–543 (end)] (Homo sapiens, UniProt P07947)
T1 construct: human recombinant Yes [a.a; 2–543 (end)]; purchased BPS Bioscience 40488
Test: ADP-Glo kinase assay, inhibition rates of Yes phosphorylation activity (first and second screening)
Assay type: biochemical
Settings: 10 μmol L−1 compound; for First screening IR (inhibition rate): mean of n = 4 wells; for Second screening IR (inhibition rate): dissolved from fresh powder, n = 4
How it was run: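 Hits from a first pass were rescreened after re-dissolution from fresh powder. The first pass reported the mean inhibition rate of quadruplicate wells per compound. Activity was that of recombinant human Yes [a.a. 2–543] kinase, read out with the ADP-Glo ADP-detection method.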

T1 sequence (P07947 2-543): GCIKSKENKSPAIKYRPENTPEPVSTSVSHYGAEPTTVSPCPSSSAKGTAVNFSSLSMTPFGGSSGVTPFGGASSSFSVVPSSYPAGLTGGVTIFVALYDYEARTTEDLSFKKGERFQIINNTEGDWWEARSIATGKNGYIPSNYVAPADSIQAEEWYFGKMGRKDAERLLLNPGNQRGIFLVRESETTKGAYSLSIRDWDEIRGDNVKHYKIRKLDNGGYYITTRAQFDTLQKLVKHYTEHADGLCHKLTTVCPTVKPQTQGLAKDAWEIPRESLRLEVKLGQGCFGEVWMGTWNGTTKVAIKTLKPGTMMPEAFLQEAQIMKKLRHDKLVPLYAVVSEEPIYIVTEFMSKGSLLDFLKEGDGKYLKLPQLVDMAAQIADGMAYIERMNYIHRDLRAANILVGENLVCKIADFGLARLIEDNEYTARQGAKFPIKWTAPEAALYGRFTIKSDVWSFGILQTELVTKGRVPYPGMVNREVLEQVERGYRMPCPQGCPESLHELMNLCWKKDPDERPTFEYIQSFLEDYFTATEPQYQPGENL

Row | Compound | First screening IR (inhibition rate) | Second screening IR (inhibition rate)
1 | O=C(Nc1ccc(N2CCCCC2)c(S(=O)(=O)Nc2ccc(Cl)cc2)c1)c1ccc(S(=O)(=O)NCc2ccco2)cc1 [Compound Z32729001] | -5% | –
2 | CCc1cccc(CC)c1NC(=O)COC(=O)CC1c2ccccc2CCN1S(=O)(=O)c1ccc(F)cc1 (stereo not shown) [Compound Z56803956] | 27% | –
3 | CCCn1c(=O)[nH]c(=O)c2cc(C(=O)N(CC)Cc3ccc4c(c3)OCO4)cnc21 [Compound Z284160386] | 5% | –
4 | CNS(=O)(=O)c1cc(C(=O)N2CCN(Cc3cc(OC)ccc3OC)CC2)ccc1Cl [Compound Z26970092] | 28% | –
5 | Cc1cc(C(NCC(=O)Nc2cccc(C(=O)N(C)C)c2)C(C)C)c(C)s1 (stereo not shown) [Compound Z1592563027] | -2% | –
6 | Cc1noc(C)c1CSc1ncnc2sc3c(c12)CCC(C)C3 (stereo not shown) [Compound Z16316201] | -8% | –
7 | CCn1c(-c2ccncc2)nc2c1c(=O)[nH]c(=O)n2Cc1ccccc1 [Compound Z50138431] | -3% | –
8 | CN1CCc2nc(NC(=O)CCC(=O)c3ccccc3)sc2C1 [Compound Z54410536] | -2% | –
9 | CC1CN(C(C)(C)CNC(=O)c2ccc(NS(=O)(=O)c3ccccc3)cc2)CC(C)O1 (stereo not shown) [Compound Z226329302] | 6% | –
10 | NC(=O)c1ccc2[nH]cc(C3CCN(C(=O)c4cccs4)CC3)c2c1 [Compound Z1624201749] | -35% | –
11 | CN(C(=O)c1cccc(NC(=O)c2ccc(Br)o2)c1)c1ccc(C#N)cc1 [Compound Z1269414490] | -5% | –
12 | CCn1ncc2c(C(=O)O)cc(-c3ccccc3)nc21 [Compound Z56648330] | -43% | –
13 | O=C1CC(C(=O)Nc2cc(CC3CCCCC3)[nH]n2)c2ccc(F)cc2N1 (stereo not shown) [Compound Z729744666] | 22% | –
14 | Cc1nc2cc(NC(=O)c3cc(C)n(-c4cccnc4)c3C)ccc2o1 [Compound Z395169542] | 6% | –
15 | CNC(=O)c1cccc(NCc2cc(C)ccc2O)n1 [Compound Z1743524859] | 37% | –
16 | CC(C)n1ncc2cc(/C=C3/CN(C)Cc4c3nc3ccccc3c4C(=O)O)c(Cl)nc21 [Compound Z336032562] | 54% | -2%
17 | COc1ccccc1C(=O)Nc1ccc(Nc2nc(-c3ccccc3)c3cc(C)ccc3n2)cc1 [Compound Z111781008] | 8% | –
18 | CN(C)C(=O)CN1CCN(CC(=O)Nc2cc(-c3ccc4c(c3)CCC4)nn2-c2ccccc2)CC1 [Compound Z106627256] | -3% | –
19 | COc1cc(/C=N/Nc2ncnc3sc(C)c(C)c23)ccc1O [Compound Z49890548] | 21% | –
20 | COc1cc2cc(C3CC(C4CC4)=NN3C(C)=O)c(Cl)nc2cc1OC (stereo not shown) [Compound Z431511574] | -6% | –
21 | Cc1ccc(S(=O)(=O)N(C)c2ccc(OCC(=O)Nc3ccc4oc(C)nc4c3)cc2)cc1 [Compound Z70909087] | 17% | –
22 | CCOC(=O)c1c(-c2ccc(F)cc2)csc1NC(=O)CN1CCN(Cc2cc(OC)ccc2OC)CC1 [Compound Z46402002] | 5% | –
23 | COc1cc(/C=N/NC(=O)c2cc(-c3cccnc3)nc3ccccc23)ccc1OCc1ccc(Cl)cc1 [Compound Z49638448] | -1% | –
24 | COc1ccc(NC(C)=O)cc1S(=O)(=O)N(C)Cc1cccc(OC)c1OC [Compound Z45476409] | 2% | –
25 | Cc1noc(C)c1CC(=O)NN=C(c1ccccc1)c1ccccc1 [Compound Z79575803] | -9% | –
26 | Cl.Fc1ccccc1-c1c2c(nc3ccc(Cl)cc13)-c1ccccc1CC2 [Compound Z48955803] | 15% | –

Other lines, results leading:

Row | First screening IR (inhibition rate) | Second screening IR (inhibition rate) | Compound
27 | 4% | – | Cc1nc2ccc(NC(=O)CNC(=O)c3ccccc3F)cc2s1 [Compound Z33270206]
28 | 13% | – | Clc1ccc(/C=N/Nc2ncnc3c2cnn3-c2ccccc2)cc1 [Compound Z56795594]
29 | -3% | – | CC(=O)c1cccc(COC(=O)c2n[nH]c3c2CCCC3)c1 [Compound Z1515387931]
30 | -25% | – | Cc1cccc(NC(=O)CN2CCN(C(=O)CN3C(=O)Cn4c(cc5ccccc54)C3=O)CC2)c1C [Compound Z826666316]
31 | 10% | – | CCCn1c(NC(=O)c2ccc3c(c2)S(=O)(=O)N(C(C)C)C3=O)nc2ccccc21 [Compound Z641940000]
32 | 4% | – | CC(Sc1n[nH]c(-c2ccccc2Br)n1)C(=O)Nc1ccc(F)cc1 (stereo not shown) [Compound Z25191222]
33 | 5% | – | Cc1sc2ncnc(N/N=C/c3cccc(Br)c3)c2c1C [Compound Z49890557]
34 | 1% | – | COc1cc(CNC(=O)c2ccc[nH]c2=O)ccc1OCC(N)=O [Compound Z666252570]
35 | 5% | – | Cc1ccccc1Nc1nc(N)nc(CN(C)Cc2ccc(C(C)(C)C)cc2)n1 [Compound Z44561353]
36 | 4% | – | CN(C)c1nc(N)nc(CSCC(=O)Nc2cccc(Cl)c2Cl)n1 [Compound Z197452730]
37 | 5% | – | Cc1cc(C)n(-c2cncc(NC(C)c3nnc4ccccn34)n2)n1 (stereo not shown) [Compound Z1343207103]
38 | 1% | – | CN1C/C(=C/c2ccc(-n3cncn3)cc2)c2nc3ccccc3c(C(=O)O)c2C1 [Compound Z285929216]
39 | 36% | 0% | Cc1n[nH]c(C)c1S(=O)(=O)Nc1cccc(/C=C/c2ccccn2)c1 [Compound Z45649828]
40 | 0% | – | COc1ccc2c(c1)c(CC(=O)OCc1ncc(Cl)n1C)c(C)n2C(=O)c1ccc(Cl)cc1 [Compound Z148531038]
41 | 0% | – | Cc1sc2nc(CN3CCC(C)CC3)nc(N3CCN(C(=O)c4ccccc4F)CC3)c2c1C [Compound Z275104396]
42 | -12% | – | CCOC(=O)c1ccc(-n2c(O)c(C=NCc3ccccn3)c3ccccc3c2=O)cc1 [Compound Z31275874]
43 | 12% | – | FC(F)(F)c1ccnc(Nc2cccc(/C=C/c3ccccn3)c2)n1 [Compound Z285694006]
44 | 16% | – | CCC1(c2ccc(F)cc2)NC(=O)N(CC(=O)Nc2ccc(C(=O)N(C)C)cc2)C1=O (stereo not shown) [Compound Z14224841]
45 | -20% | – | CC(C)(C(=O)N1CCN(C(=O)C2CCC(=O)NC2)CC1)c1ccccc1 (stereo not shown) [Compound Z645877938]
46 | -7% | – | CCOC(=O)/C(C#N)=C\C1=C2OC(c3ccccc3)=CC(c3ccccc3)=C2CCC1 [Compound Z56780975]
47 | -16% | – | CCn1ncc2c(C(=O)N(C)Cc3ccccc3)cc(-c3ccccc3)nc21 [Compound Z223859126]
48 | -9% | – | COCCCn1c(=O)c2ccccc2n2c(=S)n(CN(Cc3ccc(N(C)C)cc3)C(C)C)nc12 [Compound Z729842360]
49 | 0% | – | O=C(O)c1c2c(nc3ccccc13)/C(=C\c1ccc(Cl)c(Cl)c1)CCC2 [Compound Z46035759]
50 | -16% | – | CN(C)C(CNC(=O)c1cc(-c2ccccc2)nc2c1cnn2Cc1ccncc1)c1ccccc1 (stereo not shown) [Compound Z116834630]

From PMC5607274, “An iterative compound screening contest method for identifying target protein inhibitors using the tyrosine-protein kinase Yes” (Scientific Reports, 2017)
